# Measured values as given in patent US20110229570A1, “ORALLY RAPIDLY DISINTEGRATING TABLET AND PROCESS FOR PRODUCING SAME” (priority 2008, published 2011).
# Tests used:
# [1] = Water wettability (wetness time) of tablet; type: physicochemical; settings: 1000 kg/punch; for Wetness time, tablet obtained by compressing an excipient only: 300 mg tablet, flat punch 10 mm; for Wetness time, tablet obtained by compressing a mixture of an excipient and a water-insoluble polymer: 300 mg
# Method: A water wettability (wetness time) of a tablet was measured in accordance with a known procedure [Chem. Pharm. Bull. 44 (1), 2121-2127 (1996)] as below. Specifically, purified water (6 mL) was put in a weighing dish, and thereon were placed quarto tissue papers (205 mm×120 mm, KimWipe S-200, manufactured by NIPPON PAPER CRECIA Co., LTD). The papers were entirely moistened, and then thereon was gently placed one tablet, and a wetness time required for entirely moistening the tablet was measured.
# [2] = Hardness of tablet (tablet hardness tester); type: physicochemical; settings: 1000 kg/punch; for Hardness, tablet obtained by compressing an excipient only: 300 mg tablet, flat punch 10 mm; for Hardness, tablet obtained by compressing a mixture of an excipient and a water-insoluble polymer: 300 mg
# Method: A hardness of tablet was measured using a tablet hardness tester (manufactured by Schleuniger, type: 6D). The measurement was carried out thrice, and a hardness of tablet was obtained on an average thereof.
# [3] = (*1) 97 parts excipient + 3 parts HPMC-AS HF
# [4] = (*2) 90 parts excipient + 10 parts HPMC-AS HF
SMILES,"Wetness time, tablet obtained by compressing an excipient only [1]","Wetness time, tablet obtained by compressing a mixture of an excipient and a water-insoluble polymer [1, 3]","Hardness, tablet obtained by compressing an excipient only [2]","Hardness, tablet obtained by compressing a mixture of an excipient and a water-insoluble polymer [2, 3]","Wetness time, tablet obtained by compressing a mixture of an excipient and a water-insoluble polymer [1, 4]","Hardness, tablet obtained by compressing a mixture of an excipient and a water-insoluble polymer [2, 4]"
OC[C@@H](O)[C@@H](O)[C@H](O)[C@H](O)CO [D-mannitol],18 s,43 (*1) seconds,12 N,53 (*1) N,,
OC[C@@H](O)[C@@H](O)CO [Erythritol],,,<4 N,,37 (*2) seconds,23 (*2) N
OC[C@H]1O[C@@](CO)(O[C@H]2O[C@H](CO)[C@@H](O)[C@H](O)[C@H]2O)[C@@H](O)[C@@H]1O [Purified sucrose],3 s,,41 N,,,
OC[C@@H](O)[C@@H](O)[C@H](O)[C@@H](O)CO [Sorbitol],>300 s,>300 (*1) seconds,229 N,207 (*1) N,,
OC[C@@H](O)[C@H](O)[C@@H](O)CO [Xylitol],3 s,,12 N,,74 (*2) seconds,38 (*2) N
